Experimental data: paper PMC8371902, “Phase 1 study of M2698, a p70S6K/AKT dual inhibitor, in patients with advanced cancer” (Journal of Hematology & Oncology, 2021)
Like-named read-outs stand apart in the source and are kept apart here.

Tested on: patients with advanced metastatic cancer
From the text: In this phase 1 study, dose escalation was followed by expansion cohorts of once-daily, oral M2698 in continuous 21-day cycles. Primary objectives were to determine the maximum tolerated dose (MTD), dose-limiting toxicities (DLTs), and recommended phase 2 dose (RP2D). Secondary objectives were to assess safety and tolerability, pharmacokinetics (PK, including food effect) and antitumor activity. Pharmacodynamic biomarker assessments were exploratory. Treatment was discontinued if there was disease progression, toxicity or consent withdrawal.
In Part 1, M2698 monotherapy was investigated in a dose escalation with a food effect cohort. In Part 2, M2698 was investigated as monotherapy (expansion cohort) to further characterize safety, tolerability and pharmacokinetics, and assess antitumor activity in PAM + patients without confounding markers (exploratory).
Dose escalation analysis included all patients who experienced a DLT and those who received ≥ 80% of planned M2698 doses in cycle 1 without experiencing a DLT. Safety analysis included all patients who received ≥ 1 dose of M2698. PK analysis included all patients who received ≥ 1 dose of M2698 and had measurable plasma concentrations. Dose proportionality was tested using the power model (linear regression approach on the log -transformed scale).

NC(=O)c1cccc2c(N[C@H](CN3CCC3)c3ccc(Cl)c(C(F)(F)F)c3)ncnc12 [M2698]
M2698-related TEAE: Abnormal dreams (15 mg n=3): 0
M2698-related TEAE: Affect lability (15 mg n=3): 0
M2698-related TEAE: Alanine aminotransferase increased (15 mg n=3): 0
M2698-related TEAE: Amylase increased (15 mg n=3): 0
M2698-related TEAE: Anaemia (15 mg n=3): 0
M2698-related TEAE: Angina pectoris (15 mg n=3): 0
M2698-related TEAE: Anxiety (15 mg n=3): 0
M2698-related TEAE: Aphasia (15 mg n=3): 0
M2698-related TEAE: Ataxia (15 mg n=3): 0
M2698-related TEAE: Blood and lymphatic system disorders (15 mg n=3): 0
M2698-related TEAE: Blood creatine phosphokinase increased (15 mg n=3): 0
M2698-related TEAE: Blood creatinine increased (15 mg n=3): 0
M2698-related TEAE: Cardiac disorders (15 mg n=3): 0
M2698-related TEAE: Cognitive disorder (15 mg n=3): 0
M2698-related TEAE: Constipation (15 mg n=3): 0
M2698-related TEAE: Decreased appetite (15 mg n=3): 0
M2698-related TEAE: Delusion (15 mg n=3): 0
M2698-related TEAE: Depression (15 mg n=3): 0
M2698-related TEAE: Diarrhoea (15 mg n=3): 0
M2698-related TEAE: Diarrhoea haemorrhagic (15 mg n=3): 0
M2698-related TEAE: Dizziness (15 mg n=3): 0
M2698-related TEAE: Dry eye (15 mg n=3): 0
M2698-related TEAE: Dry mouth (15 mg n=3): 0
M2698-related TEAE: Dysgeusia (15 mg n=3): 0
M2698-related TEAE: Dyspepsia (15 mg n=3): 0
M2698-related TEAE: Dysphagia (15 mg n=3): 0
M2698-related TEAE: Energy increased (15 mg n=3): 0
M2698-related TEAE: Erythema (15 mg n=3): 0
M2698-related TEAE: Euphoric mood (15 mg n=3): 0
M2698-related TEAE: Eye disorders (15 mg n=3): 0
M2698-related TEAE: Fatigue (15 mg n=3): 0
M2698-related TEAE: Gamma-glutamyltransferase increased (15 mg n=3): 1
M2698-related TEAE: Gastrointestinal disorders (15 mg n=3): 0
M2698-related TEAE: Gastrooesophageal reflux disease (15 mg n=3): 0
M2698-related TEAE: General disorders and administration site conditions (15 mg n=3): 0
M2698-related TEAE: Headache (15 mg n=3): 0
M2698-related TEAE: Hyperhidrosis (15 mg n=3): 0
M2698-related TEAE: Hypokalaemia (15 mg n=3): 0
M2698-related TEAE: Hypomagnesaemia (15 mg n=3): 0
M2698-related TEAE: Insomnia (15 mg n=3): 0
M2698-related TEAE: Investigations (15 mg n=3): 1
M2698-related TEAE: Lipase increased (15 mg n=3): 0
M2698-related TEAE: Lymphopenia (15 mg n=3): 0
M2698-related TEAE: Metabolism and nutrition disorders (15 mg n=3): 0
M2698-related TEAE: Mucosal inflammation (15 mg n=3): 0
M2698-related TEAE: Nausea (15 mg n=3): 0
M2698-related TEAE: Nervous system disorders (15 mg n=3): 0
M2698-related TEAE: Nightmare (15 mg n=3): 0
M2698-related TEAE: Onychomadesis (15 mg n=3): 0
M2698-related TEAE: Paranoia (15 mg n=3): 0
M2698-related TEAE: Photosensitivity reaction (15 mg n=3): 0
M2698-related TEAE: Posterior reversible encephalopathy syndrome (15 mg n=3): 0
M2698-related TEAE: Pruritus generalised (15 mg n=3): 0
M2698-related TEAE: Psychiatric disorders (15 mg n=3): 0
M2698-related TEAE: Rash (15 mg n=3): 0
M2698-related TEAE: Rash maculo-papular (15 mg n=3): 0
M2698-related TEAE: Skin and subcutaneous tissue disorders (15 mg n=3): 0
M2698-related TEAE: Subjects with at least one event (15 mg n=3): 1
M2698-related TEAE: Transaminases increased (15 mg n=3): 0
M2698-related TEAE: Tremor (15 mg n=3): 0
M2698-related TEAE: Vision blurred (15 mg n=3): 0
M2698-related TEAE: Vomiting (15 mg n=3): 0
M2698-related TEAE: White blood cell count decreased (15 mg n=3): 0
M2698-related TEAE: Abnormal dreams (30 mg n=3): 0
M2698-related TEAE: Affect lability (30 mg n=3): 0
M2698-related TEAE: Alanine aminotransferase increased (30 mg n=3): 0
M2698-related TEAE: Amylase increased (30 mg n=3): 0
M2698-related TEAE: Anaemia (30 mg n=3): 0
M2698-related TEAE: Angina pectoris (30 mg n=3): 0
M2698-related TEAE: Anxiety (30 mg n=3): 0
M2698-related TEAE: Aphasia (30 mg n=3): 0
M2698-related TEAE: Ataxia (30 mg n=3): 0
M2698-related TEAE: Blood and lymphatic system disorders (30 mg n=3): 0
M2698-related TEAE: Blood creatine phosphokinase increased (30 mg n=3): 0
M2698-related TEAE: Blood creatinine increased (30 mg n=3): 0
M2698-related TEAE: Cardiac disorders (30 mg n=3): 0
M2698-related TEAE: Cognitive disorder (30 mg n=3): 0
M2698-related TEAE: Constipation (30 mg n=3): 0
M2698-related TEAE: Decreased appetite (30 mg n=3): 0
M2698-related TEAE: Delusion (30 mg n=3): 0
M2698-related TEAE: Depression (30 mg n=3): 0
M2698-related TEAE: Diarrhoea (30 mg n=3): 1
M2698-related TEAE: Diarrhoea haemorrhagic (30 mg n=3): 0
M2698-related TEAE: Dizziness (30 mg n=3): 0
M2698-related TEAE: Dry eye (30 mg n=3): 0
M2698-related TEAE: Dry mouth (30 mg n=3): 0
M2698-related TEAE: Dysgeusia (30 mg n=3): 0
M2698-related TEAE: Dyspepsia (30 mg n=3): 0
M2698-related TEAE: Dysphagia (30 mg n=3): 0
M2698-related TEAE: Energy increased (30 mg n=3): 0
M2698-related TEAE: Erythema (30 mg n=3): 0
M2698-related TEAE: Euphoric mood (30 mg n=3): 0
M2698-related TEAE: Eye disorders (30 mg n=3): 1
M2698-related TEAE: Fatigue (30 mg n=3): 0
M2698-related TEAE: Gamma-glutamyltransferase increased (30 mg n=3): 0
M2698-related TEAE: Gastrointestinal disorders (30 mg n=3): 1
M2698-related TEAE: Gastrooesophageal reflux disease (30 mg n=3): 0
M2698-related TEAE: General disorders and administration site conditions (30 mg n=3): 0
M2698-related TEAE: Headache (30 mg n=3): 0
